According to PubChem BioAssay AID248 (DTP/NCI, 2004):
Several values for one entry are separate records, joined by “and”; a condition that tells them apart may be missing. Equal values may be shown once. Toxic doses and inconclusive results are not listed.

Test system: L1210 leukemia ip in BDF1 mice, survival T/C
Assay: NCI In Vivo Anticancer Drug Screen. Data for tumor model L1210 Leukemia (intraperitoneal) in B6D2F1 (BDF1) mice
Conditions: endpoint: mean survival time, higher = longer survival
Outline: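 Transplantable tumor model; survival measured in treated vs vehicle control mice. Value = treated/control.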

[1] = dose: 100.0 mg/kg/injection, schedule: Q04DX003 (ip), vehicle: saline with Tween-80
[2] = dose: 200.0 mg/kg/injection, schedule: Q04DX003 (ip), vehicle: saline with Tween-80
[3] = dose: 400.0 mg/kg/injection, schedule: Q04DX003 (ip), vehicle: saline with Tween-80

## Cc1ccc(-n2c(O)c(N=Nc3ccccc3C)c(=O)n(-c3ccc(Br)cc3)c2=S)cc1
dose: 37.5 mg/kg/injection, schedule: Q01DX001 (ip), vehicle: Klucel (hydroxypropylcellulose) (HPC)
  T/C: 96 % of control
dose: 75.0 mg/kg/injection, schedule: Q01DX001 (ip), vehicle: Klucel (hydroxypropylcellulose) (HPC)
  T/C: 101 % of control
dose: 150.0 mg/kg/injection, schedule: Q01DX001 (ip), vehicle: Klucel (hydroxypropylcellulose) (HPC)
  T/C: 110 % of control

## CCOc1ccc(Br)cc1/C=C1\N=C(c2ccccc2)OC1=O
dose: 100.0 mg/kg/injection, schedule: Q01DX009 (ip), vehicle: Klucel (hydroxypropylcellulose) (HPC)
  T/C: 93 % of control and 95 % of control
dose: 100.0 mg/kg/injection, schedule: Q04DX003 (ip), vehicle: Klucel (hydroxypropylcellulose) (HPC)
  T/C: 97 % of control and 98 % of control
dose: 200.0 mg/kg/injection, schedule: Q01DX009 (ip), vehicle: Klucel (hydroxypropylcellulose) (HPC)
  T/C: 93 % of control and 98 % of control
dose: 200.0 mg/kg/injection, schedule: Q04DX003 (ip), vehicle: Klucel (hydroxypropylcellulose) (HPC)
  T/C: 98 % of control and 89 % of control
dose: 400.0 mg/kg/injection, schedule: Q01DX009 (ip), vehicle: Klucel (hydroxypropylcellulose) (HPC)
  T/C: 96 % of control and 86 % of control
dose: 400.0 mg/kg/injection, schedule: Q04DX003 (ip), vehicle: Klucel (hydroxypropylcellulose) (HPC)
  T/C: 93 % of control and 98 % of control

## O=C(c1ccccc1)C1(c2ccccc2)OC1(C(=O)c1ccccc1)c1ccccc1 (configuration not stated)
dose: 100.0 mg/kg/injection, schedule: Q01DX001 (ip), vehicle: Klucel (hydroxypropylcellulose) (HPC)
  T/C: 94 % of control
dose: 100.0 mg/kg/injection, schedule: Q01DX009 (ip), vehicle: saline with Tween-80
  T/C: 92 % of control
dose: 200.0 mg/kg/injection, schedule: Q01DX001 (ip), vehicle: Klucel (hydroxypropylcellulose) (HPC)
  T/C: 94 % of control
dose: 200.0 mg/kg/injection, schedule: Q01DX009 (ip), vehicle: saline with Tween-80
  T/C: 101 % of control
dose: 400.0 mg/kg/injection, schedule: Q01DX001 (ip), vehicle: Klucel (hydroxypropylcellulose) (HPC)
  T/C: 87 % of control
dose: 400.0 mg/kg/injection, schedule: Q01DX009 (ip), vehicle: saline with Tween-80
  T/C: 95 % of control

## N#Cc1cccc(C[P+](c2ccccc2)(c2ccccc2)c2ccccc2)c1
dose: 12.5 mg/kg/injection, schedule: Q01DX009 (ip), vehicle: Klucel (hydroxypropylcellulose) (HPC)
  T/C: 100 % of control
dose: 12.5 mg/kg/injection, schedule: Q04DX003 (ip), vehicle: Klucel (hydroxypropylcellulose) (HPC)
  T/C: 111 % of control
dose: 25.0 mg/kg/injection, schedule: Q01DX009 (ip), vehicle: Klucel (hydroxypropylcellulose) (HPC)
  T/C: 102 % of control
dose: 25.0 mg/kg/injection, schedule: Q04DX003 (ip), vehicle: Klucel (hydroxypropylcellulose) (HPC)
  T/C: 111 % of control
dose: 50.0 mg/kg/injection, schedule: Q04DX003 (ip), vehicle: Klucel (hydroxypropylcellulose) (HPC)
  T/C: 100 % of control

## Nc1cccc(Br)n1
dose: 37.5 mg/kg/injection, schedule: Q04DX002 (ip), vehicle: saline with Tween-80
  T/C: 88 % of control
dose: 75.0 mg/kg/injection, schedule: Q04DX002 (ip), vehicle: saline with Tween-80
  T/C: 91 % of control
dose: 150.0 mg/kg/injection, schedule: Q04DX002 (ip), vehicle: saline with Tween-80
  T/C: 104 % of control

## NC1C2C3CCC(C(C(=O)O)C3C(=O)O)C12 (configuration not stated)
[1]
  T/C: 89 % of control
[2]
  T/C: 110 % of control
[3]
  T/C: 100 % of control

## C[C@H]1CN1C1=CC(=O)C(N2C[C@@H]2C)=CC1=O
dose: 0.88 mg/kg/injection, schedule: Q04DX003 (ip), vehicle: other
  T/C: 106 % of control
dose: 1.0 mg/kg/injection, schedule: Q01DX001 (ip), vehicle: other
  T/C: 108 % of control
dose: 1.56 mg/kg/injection, schedule: Q01DX009 (ip), vehicle: other
  T/C: 120 % of control
dose: 2.0 mg/kg/injection, schedule: Q01DX001 (ip), vehicle: other
  T/C: 105 % of control
dose: 2.0 mg/kg/injection, schedule: Q04DX003 (ip), vehicle: Klucel (hydroxypropylcellulose) (HPC)
  T/C: 108 % of control
dose: 2.0 mg/kg/injection, schedule: Q04DX003 (ip), vehicle: other
  T/C: 120 % of control
dose: 4.0 mg/kg/injection, schedule: Q04DX003 (ip), vehicle: Klucel (hydroxypropylcellulose) (HPC)
  T/C: 117 % of control
dose: 5.0 mg/kg/injection, schedule: Q01DX009 (ip), vehicle: other
  T/C: 166 % of control
dose: 8.0 mg/kg/injection, schedule: Q04DX003 (ip), vehicle: Klucel (hydroxypropylcellulose) (HPC)
  T/C: 124 % of control
dose: 9.0 mg/kg/injection, schedule: Q04DX003 (ip), vehicle: saline with Tween-80
  T/C: 95 % of control
dose: 9.5 mg/kg/injection, schedule: Q01DX001 (ip), vehicle: other
  T/C: 114 % of control
dose: 12.0 mg/kg/injection, schedule: Q01DX009 (ip), vehicle: other
  T/C: 92 % of control
dose: 25.0 mg/kg/injection, schedule: Q04DX003 (ip), vehicle: saline with Tween-80
  T/C: 105 % of control

## O=[N+]([O-])c1ccc(Cc2ccc([N+](=O)[O-])cc2)cc1
[1]
  T/C: 102 % of control
[2]
  T/C: 109 % of control
[3]
  T/C: 98 % of control
